Measured values: ChEMBL document CHEMBL3994582, “A2B adenosine receptor antagonists: Design, synthesis and biological evaluation of novel xanthine derivatives” (Eur J Med Chem, 2017)

Assays:
Liver [1] = assay: Metabolic stability in human liver microsomes assessed as metabolic rate per mg protein preincubated for 5 mins followed by NADPH addition measured up to 30 mins by LC-MS/MS analysis; type: ADME, microsome; details: 0.5 h
Liver [2] = assay: Metabolic stability in mouse liver microsomes assessed as metabolic rate per mg protein preincubated for 5 mins followed by NADPH addition measured up to 30 mins by LC-MS/MS analysis; type: ADME, microsome; details: 0.5 h
Adenosine receptor A2a = Adenosine receptor A2a (Homo sapiens, UniProt P29274); assay: Displacement of [3H]-ZM-241385 from human adenosine receptor A2a expressed in HEK293 cell membranes at 0.1 uM after 90 mins by liquid scintillation counting method relative to control
Chain of Adenosine receptor A2a (P29274 whole entry): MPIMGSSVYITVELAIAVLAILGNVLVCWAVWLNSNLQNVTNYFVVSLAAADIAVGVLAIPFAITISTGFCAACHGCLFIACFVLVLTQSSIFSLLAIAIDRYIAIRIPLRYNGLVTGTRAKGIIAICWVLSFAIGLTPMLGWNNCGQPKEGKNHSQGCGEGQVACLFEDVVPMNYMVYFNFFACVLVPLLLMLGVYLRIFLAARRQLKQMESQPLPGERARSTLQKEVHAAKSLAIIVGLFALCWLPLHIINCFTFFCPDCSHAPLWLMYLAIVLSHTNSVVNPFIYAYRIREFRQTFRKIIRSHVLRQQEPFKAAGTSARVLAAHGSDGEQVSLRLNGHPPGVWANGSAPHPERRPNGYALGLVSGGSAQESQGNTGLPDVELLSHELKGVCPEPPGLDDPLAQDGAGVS

[3] = target: T1, Adenosine receptor A1 (Homo sapiens) (UniProt P30542); assay: Displacement of [3H]DPCPX from human adenosine receptor A1 expressed in HEK293 cell membranes at 0.1 uM after 90 mins by liquid scintillation counting method relative to control
T1 sequence (whole entry): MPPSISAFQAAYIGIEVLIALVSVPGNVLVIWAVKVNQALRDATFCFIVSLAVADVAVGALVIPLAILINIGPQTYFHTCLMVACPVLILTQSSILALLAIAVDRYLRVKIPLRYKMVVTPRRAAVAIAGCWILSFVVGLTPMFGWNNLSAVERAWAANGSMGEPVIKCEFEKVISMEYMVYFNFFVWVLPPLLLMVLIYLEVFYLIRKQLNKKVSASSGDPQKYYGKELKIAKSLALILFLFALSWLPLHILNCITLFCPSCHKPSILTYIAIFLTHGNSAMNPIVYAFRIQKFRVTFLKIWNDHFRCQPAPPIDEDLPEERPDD

[4] = target: T2, Adenosine receptor A3 (Homo sapiens) (UniProt P0DMS8); assay: Displacement of [3H]-HEM-ADO from human adenosine receptor A3 expressed in HEK293 cell membranes at 1 uM after 90 mins by liquid scintillation counting method relative to control
T2 sequence (whole entry): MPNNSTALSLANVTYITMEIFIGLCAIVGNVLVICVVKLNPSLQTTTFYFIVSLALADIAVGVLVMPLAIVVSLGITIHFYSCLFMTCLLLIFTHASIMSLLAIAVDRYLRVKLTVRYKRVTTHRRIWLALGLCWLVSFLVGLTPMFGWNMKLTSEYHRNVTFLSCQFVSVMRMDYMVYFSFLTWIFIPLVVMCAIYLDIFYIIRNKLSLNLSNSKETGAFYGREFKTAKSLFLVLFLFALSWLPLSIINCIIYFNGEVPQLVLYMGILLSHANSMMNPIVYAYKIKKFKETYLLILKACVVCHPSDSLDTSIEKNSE

Adenosine receptor A2b = target: T3, Adenosine receptor A2b (Homo sapiens, UniProt P29275); assay: Displacement of [3H]-MRS-1754 from human adenosine receptor A2b expressed in HEK293 cell membranes after 90 mins by liquid scintillation counting method
T3 sequence (P29275 whole entry): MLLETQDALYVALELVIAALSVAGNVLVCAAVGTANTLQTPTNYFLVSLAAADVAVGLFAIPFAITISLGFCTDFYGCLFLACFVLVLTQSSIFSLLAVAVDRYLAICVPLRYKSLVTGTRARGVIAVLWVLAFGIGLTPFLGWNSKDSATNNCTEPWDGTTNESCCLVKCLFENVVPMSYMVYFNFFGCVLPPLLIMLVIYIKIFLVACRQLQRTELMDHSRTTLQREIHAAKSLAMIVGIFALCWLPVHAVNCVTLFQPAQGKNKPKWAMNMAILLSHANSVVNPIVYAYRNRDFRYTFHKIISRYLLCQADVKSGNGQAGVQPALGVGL

| Drug metabolism (Liver [1]) [nmol/min/mg] | Drug metabolism (Liver [2]) [nmol/min/mg] | inhibition (Adenosine receptor A2a) [%] | inhibition [3] [%] | inhibition [4] [%] | Ki (Adenosine receptor A2b) [nM] | Structure (SMILES) |
| --- | --- | --- | --- | --- | --- | --- |
| 0.4 | 0.25 | 16 | 15 | 3 | 17.5 | CCCn1c(=O)c2[nH]c(-c3cnn(CC4CC(=O)N(c5cccc(OC(F)(F)F)c5)C4)c3)nc2n(CC)c1=O (configuration not stated) |
| 0.02 | 0.35 | 68 | 32 | 17 | 41 | CCCn1c(=O)c2[nH]c(-c3cnn(CC4CC(=O)N(c5cccc(F)c5)C4)c3)nc2n(CCC)c1=O (configuration not stated) |
| 0.18 | 0.41 | 46 | 22 | 11 | 21.6 | CCCn1c(=O)c2[nH]c(-c3cnn(CC4CC(=O)N(c5cccc(OC)c5)C4)c3)nc2n(CCC)c1=O (configuration not stated) |
| 0.03 | 0.48 | 45 | 13 | 0 | 19 | CCCn1c(=O)c2[nH]c(-c3cnn(CC4CC(=O)N(c5ccc(F)cc5F)C4)c3)nc2n(CCC)c1=O (configuration not stated) |
| 0.2 | 0.34 | 30 | 58 | 17 | 6 | CCCn1c(=O)c2[nH]c(-c3cnn(CC4CCN(c5cccc(C(F)(F)F)c5)C4=O)c3)nc2n(CCC)c1=O (configuration not stated) |
|  |  |  |  |  | 43 | CCCn1c(=O)c2[nH]c(-c3cnn(CC4CCN(c5cccc(F)c5)C4=O)c3)nc2n(CCC)c1=O (configuration not stated) |
|  |  |  |  |  | 77 | CCCn1c(=O)c2[nH]c(-c3cnn(CC4CC(=O)N(c5ccc(C(=O)O)cc5)C4)c3)nc2n(CCC)c1=O (configuration not stated) |
|  |  |  |  |  | 90 | CCCn1c(=O)c2[nH]c(-c3cc(OCC4CC(=O)N(c5cccc(F)c5)C4)no3)nc2n(CCC)c1=O (configuration not stated) |
|  | 0.25 | 37 | 33 | 0 | 8 | CCCn1c(=O)c2[nH]c(-c3cnn(CC4CC(=O)N(c5ccc(C)cc5)C4)c3)nc2n(CCC)c1=O (configuration not stated) |

Second part, the molecule before the results:

| Structure (SMILES) | Drug metabolism (Liver [1]) [nmol/min/mg] | Drug metabolism (Liver [2]) [nmol/min/mg] | inhibition (Adenosine receptor A2a) [%] | inhibition [3] [%] | inhibition [4] [%] | Ki (Adenosine receptor A2b) [nM] |
| --- | --- | --- | --- | --- | --- | --- |
| CCCn1c(=O)c2[nH]c(-c3cnn(CC(=O)N4CCN(c5ccc(C(F)(F)F)cc5)CC4)c3)nc2n(CCC)c1=O |  |  | 71 | 53 | 11 | 0.9 |
| CCCn1c(=O)c2[nH]c(-c3cnn(CC4CCN(c5ccc(OC)cc5)C4)c3)nc2n(CCC)c1=O (configuration not stated) | 0.37 | 0.43 | 53 | 21 | 3 | 13 |
| CCCn1c(=O)c2[nH]c(-c3cnn(C(C)C4CC(=O)N(c5cccc(C(F)(F)F)c5)C4)c3)nc2n(CCC)c1=O (configuration not stated) | 0.2 | 0.59 | 15 | 17 | 18 | 4 |
| CCCn1c(=O)c2[nH]c(-c3cnn(CC4CCN(c5ccc(C)cc5)C4)c3)nc2n(CCC)c1=O (configuration not stated) | 0.66 | 0.38 | 51 | 26 | 2 | 12 |
| CCCn1c(=O)c2[nH]c(-c3cnn(CC(=O)N4CCN(c5ccc(F)c(Cl)c5)CC4)c3)nc2n(CCC)c1=O |  |  | 72 | 56 | 17 | 1.8 |
| CCCn1c(=O)c2[nH]c(-c3cnn(CC4CCN(c5cccc(OC)c5)C4)c3)nc2n(CCC)c1=O (configuration not stated) | 0.78 | 0.67 | 69 | 43 | 12 | 13.7 |
| CCCn1c(=O)c2[nH]c(-c3cc(OCC4CC(=O)N(c5ccc(F)cc5)C4)no3)nc2n(CCC)c1=O (configuration not stated) |  |  | 0 | 0 | 7 | 210 |
| CCCn1c(=O)c2[nH]c(-c3cc(OCC4CC(=O)N(c5cccc(C(F)(F)F)c5)C4)no3)nc2n(CCC)c1=O (configuration not stated) |  |  | 0 | 0 | 5 | 69 |
| CCCn1c(=O)c2[nH]c(-c3cnn(CC(=O)N4CCN(c5ccc(C)cc5)CC4)c3)nc2n(CCC)c1=O |  |  | 58 | 58 | 11 | 5 |
